According to publication PMC10914731, “Homo-BacPROTAC-induced degradation of ClpC1 as a strategy against drug-resistant mycobacteria” (Nature Communications, 2024):
Converted amounts (≈) assume the structure as drawn. “And” between values parts separate entries of the source, which are not always exact repeats. Identical values can stand only once. Like-named read-outs stand apart in the source and are kept apart here. *1 amine or outer side, *2 acyl side, *3 side chain or, on linkers, in order; H or OH if unused. Where a SMILES comes first, the peptide text is derived from it. [ ]: non-standard residue; d: D form. X5 = C=CCn1cc(C[C@@H](C(=O)[*:2])N(C)[*:1])c2ccccc21; X1 = C#CCn1cc(C[C@H](N[*:1])C(=O)[*:2])c2ccccc21; NMeLeu(5-OH,4R) = CN[C@@H](C[C@@H](C)CO)C(=O)O; Phe(βR-OMe) = CO[C@H](c1ccccc1)[C@H](N)C(=O)O; NMeL = CN[C@@H](CC(C)C)C(=O)O

Columns and labels:
[1] = type: in vitro ADME, Human; conditions: for Hepatocyte Human: clearance in hepatocytes
Procedure: (§1) Cryopreserved hepatocytes are incubated in an appropriate buffer system containing 50% species serum. Following an acclimation period (15–30 min) in an incubator (37 °C, 5−10% CO2, 85–95% humidity) the test compound is added to the hepatocyte suspension (pH 7.4, typical cell density of about 1 million cells/mL; final concentration of test compound is 1 µM, final DMSO concentration <0.05% v/v). The cells are incubated for up to 6 h and samples are taken at 6 different time points. Samples are then quenched with acetonitrile and pelleted by centrifugation. The remaining amount of parent compound in the supernatants is then analysed by HPLC-MS/MS. Clearance is calculated from compound half-lives using the well-stirred liver model and is converted to clearance stated as % of the liver blood flow (% Qh).

[2] = Hepatocyte stability, mice; type: in vitro ADME; conditions: for Hepatocyte Mice: clearance in hepatocytes
Procedure: as §1

[3] = Microsomal stability, human; type: in vitro ADME; conditions: for Microsomal Stability Human: clearance in microsomes
Procedure: (§2) The kinetics of compound degradation in liver microsomes is assessed in an assay with 1 µmol/l of compound and 0.5 mg/ml liver microsomes in a medium of 100 mM Tris-HCl pH 7.5, 6.5 mM MgCl2 and 1 mM NADPH at 37 °C. The reaction is stopped at multiple time points by adding acetonitrile. After centrifugation, the compound concentration is measured in the supernatants by high-performance liquid chromatography (HPLC) tandem mass spectrometry (MS/MS). The results are fitted to a first-order decay and the half-lives are converted to clearance (stated as % of the liver blood flow (%Qh)) using the well-stirred liver model.

in vitro = conditions: human; for efflux ratio: Caco-2; for Papp A→B: apical to basolateral; for Papp B→A: basolateral to apical
Excerpt: (§3) Supplementary Table 1. Structure-Activity Relationships part 1 (SPR, Caco-2) […]
(§4) SPR. Mean values ± standard deviation. Footnotes indicate the number of measurements performed for the respective compound: a) n = […]
(§5) [5] Permeability across Caco-2 monolayers in P(A−B): apical to basolateral and P(B−A): basolateral to apical direction (values reported in 10-
(§6) 6 cm s-1); efflux ratio = P(B−A)/P(A−B); Int. perm: mean value of P(A−B) and P(B−A). […] Influence of Trp-Nα methylation on P(A-B) and efflux
(§7) ratio. Bold: positive influence.

Caco-2 monolayers = experiment: in vitro; conditions: for CACO permeability PEAB: apical to basolateral; for CACO permeability PEBA: basolateral to apical; for Caco-2 Int. Perm: mean value of P(A−B) and P(B−A)
Excerpt: as §3, §4, §5, §6, §7

[4] = type: in vitro ADME, Rat; conditions: for Hepatocyte Rat: clearance in hepatocytes
Procedure: as §1

[5] = biological target: ClpC1 NTD protein (M. tuberculosis) (Mycobacterium tuberculosis, UniProt P9WPC9); experiment: biochemical; type: binding; conditions: for koff: read-out: koff ClpC1-NTD
ClpC1 NTD protein (M. tuberculosis), sequence (P9WPC9 1-156, looked up, natural form): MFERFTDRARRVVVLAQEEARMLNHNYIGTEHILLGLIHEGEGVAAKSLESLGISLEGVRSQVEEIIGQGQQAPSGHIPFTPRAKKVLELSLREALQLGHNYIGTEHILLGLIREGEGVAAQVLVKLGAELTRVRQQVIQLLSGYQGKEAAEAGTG

[6] = type: in vitro ADME, Rat; conditions: for Microsomal Stability Rat: clearance in microsomes
Procedure: as §2

[7] = type: in vitro ADME, Mice
Procedure: as §2

Mtb # 8673 = experiment: microbe, parasite or virus in culture; type: cell-based
Mtb # 11291 = experiment: microbe, parasite or virus in culture; type: cell-based; conditions: for MIC: read-out: MIC Mtb # 11291
Mtb ATCC 35825 = experiment: microbe, parasite or virus in culture; type: cell-based
[8] = SPR (Supplementary Table 1), read-out: KD ClpC1-NTD Mean ± SD
[9] = SPR, single independent measurements
[10] = SPR, single independent measurements, read-out: KD ClpC1-NTD
[11] = Mycobacterium tuberculosis, mean, n = 2 well replicates
[12] = Mycobacterium tuberculosis, single well replicates

Row | Compound | Hepatocyte Stability Human QH [1] | Hepatocyte Human [1] | Hepatocyte Mice [2] | Microsomal Stability Human QH [3] | Microsomal Stability Human [3] | efflux ratio (in vitro) | Papp A→B (in vitro; Caco-2, CACO permeability PEAB) | Papp B→A (in vitro; Caco-2, CACO permeability PEBA) | CACO permeability PEAB (Caco-2 monolayers) | CACO permeability PEBA (Caco-2 monolayers) | Caco-2 Int. Perm (Caco-2 monolayers) | Hepatocyte Stability Rat QH [4] | Hepatocyte Rat [4] | Kd [5, 8] | koff ClpC1-NTD [5, 9] | Kd [5, 10] | koff [5, 9] | Microsomal Stability Rat QH [6] | Microsomal Stability Rat [6] | further results
1 | C#CCn1cc(C[C@@H]2NC(=O)[C@H](C(C)C)NC(=O)[C@H](CC(C)C)N(C)C(=O)[C@H](C(C)C)NC(=O)[C@H](Cc3ccccc3)NC(=O)[C@H](C)NC(=O)[C@H](C[C@@H](C)CO)N(C)C2=O)c2ccccc21 [SI-72] (cyclo(AFV[NMeL]V[X1][NMeLeu(5-OH,4R)])) | 23.35% and 19.57% | 12 %Qh | 71 %Qh | >88.400% | > 88 %Qh | 61.4 | 0.17 ×10⁻⁶ cm/s | 15 ×10⁻⁶ cm/s | 0.29000000000000003 ×10⁻⁶ cm/s | 9.999999999999999 ×10⁻⁶ cm/s | 6.4 10-6 cm s-1 | 81.5% and 81.75% | 82 %Qh | 14 ± 6 nM | 0.05 s⁻¹ | 17.7 nM and 9.9 nM | 0.07 s⁻¹ | 87.300% | 87 %Qh | Papp A→B (in vitro; Caco-2, Caco-2 permeability P (A-B)): 0.2 ×10⁻⁶ cm/s; Papp B→A (in vitro; Caco-2, Caco-2 permeability P (B-A)): 12.5 ×10⁻⁶ cm/s; Microsomal Stability Mouse QH ([7]; Mouse): >88.400%; Microsomal Stability Mice ([7]; clearance in microsomes): > 88 %Qh
2 | [H]/N=C(/N)N[C@H]1[C@H](O)[C@@H](O)[C@H](O[C@@H]2O[C@@H](C)[C@](O)(C=O)[C@H]2O[C@@H]2O[C@@H](CO)[C@H](O)[C@@H](O)[C@@H]2NC)[C@@H](N/C(N)=N\[H])[C@@H]1O [Streptomycin] |  |  |  |  |  |  |  |  |  |  |  |  |  |  |  |  |  |  |  | MIC (Mtb # 8673; [11]): 6.9 µM and 4 µg/mL; MIC (Mtb # 8673; [12]): 6.88 µM and 4 µg/mL; MIC (Mtb # 8673; single well replicates): 6.88 µM (≈ 4 µg/mL); MIC Mtb # 8673 (Mtb # 8673; single well replicates): 4 µg/mL (≈ 6.88 µM); MIC (Mtb # 11291; [11]): 0.4 µM and 0.3 µg/mL; MIC (Mtb # 11291; [12]): 0.43 µM and 0.25 µg/mL; MIC Mtb # 11291 (Mtb # 11291; single well replicates): 0.25 µg/mL (≈ 0.43 µM); MIC (Mtb # 11291; single well replicates): 0.43 µM (≈ 0.25 µg/mL); MIC (Mtb ATCC 35825; Mycobacterium tuberculosis, ATCC35825, mean, n = 2 well replicates): 27.5 µM and 16 µg/mL; MIC (Mtb ATCC 35825; Mycobacterium tuberculosis, ATCC35825, single well replicates): 16 µg/mL and 27.5 µM; MIC (Mtb ATCC 35825; single well replicates): 27.51 µM (≈ 16 µg/mL); MIC Mtb ATCC 35825 (Mtb ATCC 35825; single well replicates): 16 µg/mL (≈ 27.5 µM)
3 | C=CCn1cc(C[C@H]2C(=O)N(C)[C@@H](C[C@@H](C)CO)C(=O)N[C@@H](C)C(=O)N[C@@H]([C@H](OC)c3ccccc3)C(=O)N[C@@H](C(C)C)C(=O)N(C)[C@@H](CC(C)C)C(=O)N[C@@H](C(C)C)C(=O)N2C)c2ccccc21 [SI-60] (cyclo(A[Phe(βR-OMe)]V[NMeL]V[X5][NMeLeu(5-OH,4R)])) | 50.176% | 50 %Qh | 61 %Qh | >88.400% | > 88 %Qh | 2.5 | 46 ×10⁻⁶ cm/s | 49 ×10⁻⁶ cm/s | 35 ×10⁻⁶ cm/s | 88 ×10⁻⁶ cm/s | 61.5 10-6 cm s-1 | 57.215% | 57 %Qh | 8 ± 3 nM | 0.04 s⁻¹ | 9.87 nM and 5.93 nM | 0.03 s⁻¹ | >87.900% | > 88 %Qh | Hepatocyte Stability Mouse QH ([2]; Mouse): 61.367%; Permeability Correlation P (A-B) (Caco-2 monolayers; influence of Trp-Nα methylation on P(A-B), matched pair, listed under the methylated partner): 14.6; Permeability Correlation Ratio (Caco-2 monolayers; influence of Trp-Nα methylation on efflux ratio, matched pair, listed under the methylated partner): 3.2
